Test results from patent US10071967B2, “N-cycloalkyl-N-{[2-(1-substitutedcycloalkyl)phenyl]methylene}-(thio)carboxamide derivatives” (BAYER CROPSCIENCE AKTIENGESELLSCHAFT, priority 2013, dated 2018).

experiment: log P by HPLC on a reversed-phase column (C 18), EEC Directive 79/831 Annex V.A8; type: physicochemical; conditions: HPLC reversed-phase C 18, 40° C., 0.1% aqueous formic acid and acetonitrile, gradient 10% to 90% acetonitrile
Description: In table 1, the log P values were determined in accordance with EEC Directive 79/831 Annex V.A8 by HPLC (High Performance Liquid Chromatography) on a reversed-phase column (C 18), using the method described below: Temperature: 40° C.; Mobile phases: 0.1% aqueous formic acid and acetonitrile; linear gradient from 10% acetonitrile to 90% acetonitrile. Calibration was carried out using unbranched alkan-2-ones (comprising 3 to 16 carbon atoms) with known log P values (determination of the log P values by the retention times using linear interpolation between two successive alkanones). lambda-max-values were determined using UV-spectra from 200 nm to 400 nm and the peak values of the chromatographic signals.

| logP | Molecule |
| --- | --- |
| 3.68 | Cn1cc(C(=O)N(Cc2cc(F)ccc2C2(C)CC2(Cl)Cl)C2CC2)c(C(F)F)n1 (stereo not drawn) [Example 1.153] |
| 3.13 | COCC1(c2ccc(C)cc2CN(C(=O)c2cn(C)nc2C(F)F)C2CC2)CC1 [Example 1.154] |
| 2.61 | COCC1(c2ccc(C)cc2CN(C(=O)c2cn(C)nc2C)C2CC2)CC1 [Example 1.157] |
| 5.43 | Cc1cc(C(=O)N(Cc2cc(Cl)c(Cl)cc2C2(C)CC2)C2CC2)c(C)o1 [Example 1.159] |
| 3.81 | Cc1nn(C)cc1C(=O)N(Cc1cc(Cl)c(Cl)cc1C1(C)CC1)C1CC1 [Example 1.160] |
| 4.35 | Cc1nn(C)c(F)c1C(=O)N(Cc1cc(Cl)c(Cl)cc1C1(C)CC1)C1CC1 [Example 1.162] |
| 4.03 | COCC1(c2ccc(C)cc2CN(C(=O)c2cc(C)oc2C)C2CC2)CC1 [Example 1.155] |

same assay, conditions: HPLC, reversed-phase column (C 18), 40° C.; 0.1% aqueous formic acid and acetonitrile, linear gradient 10% to 90% acetonitrile

| logP | Molecule |
| --- | --- |
| 4.82 | Cc1cc(C(=O)N(Cc2cc(Cl)ccc2C2(C(F)(F)F)CC2)C2CC2)c(C)o1 [Example 1.148] |
| 5.25 | CCc1cc(C(=O)N(Cc2cc(C)ccc2C2(C)CC2)C2CC2)c(C)o1 [Example 1.051] |
| 3.79 | CCC1(c2ccccc2CN(C(=O)c2cn(C)nc2C(F)F)C2CC2)CC1 [Example 1.067] |
| 3.29 | Cc1ccc(C2(C(F)F)CC2)c(CN(C(=O)c2cn(C)nc2C(F)F)C2CC2)c1 [Example 1.138] |
| 3.21 | C#CC1(c2ccc(C)cc2CN(C(=O)c2c(C)nn(C)c2F)C2CC2)CC1 [Example 1.065] |
| 5.34 | CCC1(c2cc(C)c(F)cc2CN(C(=O)c2cc(C)oc2C)C2CC2)CC1 [Example 1.083] |
| 4.62 | Cc1ccc(C2(C)CC2)c(CN(C(=O)c2cc(C)oc2C(F)F)C2CC2)c1 [Example 1.042] |
| 5.36 | CCC1(c2ccc(Cl)cc2CN(C(=O)c2c(OC(F)F)nn(C)c2C(F)(F)F)C2CC2)CC1 [Example 1.091] |
| 3.81 | Cc1ccc(C2(C(F)F)CC2)c(CN(C(=S)c2c(C)nn(C)c2F)C2CC2)c1 [Example 1.141] |
| 5.78 | CCCC1(c2cc(Cl)ccc2CN(C(=O)c2cc(C)oc2C(F)F)C2CC2)CC1 [Example 1.111] |
| 5.11 | Cn1nc(C(=S)N(Cc2ccc(Cl)cc2C2(C)CC2)C2CC2)c(C(F)F)n1 [Example 1.011] |
| 3.83 | Cn1cc(C(=O)N(Cc2cc(Cl)ccc2C2(C)CC2)C2CC2)c(C(F)F)n1 [Example 1.029] |
| 3.96 | Cc1ccc(C2(C)CC2)c(CN(C(=O)c2c(C)nn(C)c2Cl)C2CC2)c1 [Example 1.048] |
| 4.24 | CCC1(c2cc(C)c(F)cc2CN(C(=O)c2cn(C)nc2C(F)F)C2CC2)CC1 [Example 1.081] |
| 4.49 | Cc1ccc(C2(C(C)C)CC2)c(CN(C(=O)c2cn(C)nc2C(F)F)C2CC2)c1 [Example 1.123] |
| 4.69 | CCC1(c2ccc(C)cc2CN(C(=S)c2cn(C)nc2C(F)F)C2CC2)CC1 [Example 1.099] |
| 4.54 | C#CC1(c2ccc(C)cc2CN(C(=S)c2c(C)nn(C)c2F)C2CC2)CC1 [Example 1.066] |
| 3.46 | Cn1cc(C(=O)N(Cc2cccc(F)c2C2(C)CC2)C2CC2)c(C(F)F)n1 [Example 1.003] |
| 3.00 | Cn1cc(C(=O)N(Cc2ccccc2C2(C(F)F)CC2)C2CC2)c(C(F)F)n1 [Example 1.132] |
| 4.49 | CCC1(c2cc(C)c(F)cc2CN(C(=O)c2c(C)nn(C)c2Cl)C2CC2)CC1 [Example 1.078] |
| 2.98 | Cc1nn(C)cc1C(=O)N(Cc1cccc(F)c1C1(C)CC1)C1CC1 [Example 1.004] |
| 5.35 | CCC1(c2ccc(C)cc2CN(C(=O)c2c(OC(F)F)nn(C)c2C(F)(F)F)C2CC2)CC1 [Example 1.100] |

| logP | Molecule |
| --- | --- |
| 4.26 | CCC1(c2cc(C)c(F)cc2CN(C(=O)c2c(C)nn(C)c2F)C2CC2)CC1 [Example 1.082] |
| 5.54 | Cc1ccc(C2(C(C)C)CC2)c(CN(C(=O)c2cc(C)oc2C(F)F)C2CC2)c1 [Example 1.120] |
| 3.99 | Cc1ccc(C2(C)CC2)c(CN(C(=O)c2c(C(F)F)nn(C)c2C)C2CC2)c1 [Example 1.036] |
| 3.71 | Cc1ccc(CN(C(=O)c2c(C)nn(C)c2F)C2CC2)c(C2(C)CC2)c1 [Example 1.016] |
| 4.61 | Cc1ccc(C2(C)CC2)c(CN(C(=O)c2c(C(F)(F)F)nn(C)c2F)C2CC2)c1 [Example 1.038] |
| 5.14 | CCC1(c2ccc(C)cc2CN(C(=O)c2cc(C)oc2C)C2CC2)CC1 [Example 1.097] |
| 4.11 | Cc1ccc(C2(C3CC3)CC2)c(CN(C(=O)c2cn(C)nc2C(F)F)C2CC2)c1 [Example 1.107] |
| 3.39 | C#CC1(c2ccc(Cl)cc2CN(C(=O)c2cn(C)nc2C(F)F)C2CC2)CC1 [Example 1.063] |
| 3.53 | CCOC1(c2ccc(C)cc2CN(C(=O)c2c(C)nn(C)c2F)C2CC2)CC1 [Example 1.127] |
| 4.77 | CCC1(c2ccc(C)cc2CN(C(=O)c2nn(C)nc2C(F)F)C2CC2)CC1 [Example 1.094] |
| 3.96 | Cn1cc(C(=O)N(Cc2ccc(Cl)cc2C2(C)CC2)C2CC2)c(C(F)F)n1 [Example 1.010] |
| 3.09 | Cn1cc(C(=O)N(Cc2cc(F)ccc2C2(C(F)F)CC2)C2CC2)c(C(F)F)n1 [Example 1.137] |
| 3.94 | Cn1cc(C(=O)N(Cc2cc(Br)ccc2C2(C)CC2)C2CC2)c(C(F)F)n1 [Example 1.024] |
| 4.16 | Cc1ccc(C2(C)CC2)c(CN(C(=O)c2cn(C)nc2C(F)(F)F)C2CC2)c1 [Example 1.037] |
| 5.22 | CCC1(c2ccc(C)cc2CN(C(=O)c2cc(C)oc2C(F)F)C2CC2)CC1 [Example 1.095] |
| 3.44 | Cc1nn(C)cc1C(=O)N(Cc1cc(Br)ccc1C1(C)CC1)C1CC1 [Example 1.026] |
| 3.68 | Cn1cc(C(=O)N(Cc2cc(F)c(F)cc2C2(C)CC2)C2CC2)c(C(F)F)n1 [Example 1.019] |
| 5.08 | Cc1nn(C)c(F)c1C(=O)N(Cc1ccc(Cl)cc1C1(CC(C)C)CC1)C1CC1 [Example 1.143] |
| 4.72 | CCC1(c2ccc(C)cc2CN(C(=O)c2c(OC(F)F)nn(C)c2F)C2CC2)CC1 [Example 1.098] |
| 3.64 | Cc1nn(C)cc1C(=S)N(Cc1cccc(F)c1C1(C)CC1)C1CC1 [Example 1.005] |
| 3.44 | Cn1cc(C(=O)N(Cc2cc(Br)ccc2C2(C(F)F)CC2)C2CC2)c(C(F)F)n1 [Example 1.134] |
| 4.14 | CCC1(c2ccc(C)cc2CN(C(=O)c2c(C)nn(C)c2F)C2CC2)CC1 [Example 1.093] |

| logP | Molecule |
| --- | --- |
| 5.03 | CCC1(c2ccc(Cl)cc2CN(C(=O)c2c(OC(F)F)nn(C)c2Cl)C2CC2)CC1 [Example 1.090] |
| 3.21 | Cc1ccc(C2(C(F)F)CC2)c(CN(C(=O)c2c(C)nn(C)c2F)C2CC2)c1 [Example 1.139] |
| 3.33 | Cc1nn(C)c(F)c1C(=O)N(Cc1cc(Cl)ccc1C1(C(F)F)CC1)C1CC1 [Example 1.136] |
| 5.31 | CCC1(c2ccc(Cl)cc2CN(C(=O)c2cc(C)oc2C)C2CC2)CC1 [Example 1.088] |
| 4.92 | Cc1cc(C(=O)N(Cc2cccc(Cl)c2C2(C)CC2)C2CC2)c(C)o1 [Example 1.002] |
| 3.94 | CCOC1(c2ccc(C)cc2CN(C(=O)c2nn(C)cc2C(F)F)C2CC2)CC1 [Example 1.130] |
| 5.22 | Cc1ccc(C2(C)CC2)c(CN(C(=O)c2cc(C3CC3)oc2C)C2CC2)c1 [Example 1.045] |
| 3.51 | Cc1ccc(C2(Cl)CC2)c(CN(C(=O)c2cn(C)nc2C(F)F)C2CC2)c1 [Example 1.105] |
| 5.08 | CCCC1(c2ccc(C)cc2CN(C(=S)c2cn(C)nc2C(F)F)C2CC2)CC1 [Example 1.116] |
| 3.99 | Cc1nn(C)c(F)c1C(=O)N(Cc1cc(Br)ccc1C1(C)CC1)C1CC1 [Example 1.027] |
| 5.08 | Cc1cc(C(=O)N(Cc2cc(Br)ccc2C2(C)CC2)C2CC2)c(C)o1 [Example 1.028] |
| 3.89 | Cn1cc(C(=O)N(Cc2cccc(Cl)c2C2(C)CC2)C2CC2)c(C(F)F)n1 [Example 1.001] |
| 5.28 | CCC1(c2cc(Cl)ccc2CN(C(=O)c2cc(C)oc2C(F)F)C2CC2)CC1 [Example 1.072] |
| 4.54 | Cn1nc(C(=O)N(Cc2ccc(Cl)cc2C2(C)CC2)C2CC2)c(C(F)F)n1 [Example 1.009] |
| 3.48 | Cn1cc(C(=O)N(Cc2cc(F)ccc2C2(C(F)(F)F)CC2)C2CC2)c(C(F)F)n1 [Example 1.150] |
| 4.85 | Cc1ccc(C2(C)CC2)c(CN(C(=O)c2cc(C)oc2C)C2CC2)c1 [Example 1.047] |
| 4.87 | CCC1(c2cc(Cl)ccc2CN(C(=O)c2nn(C)nc2C(F)F)C2CC2)CC1 [Example 1.073] |
| 3.96 | Cc1ccc(C2(C(C)C)CC2)c(CN(C(=O)c2cn(C)nc2C)C2CC2)c1 [Example 1.124] |
| 5.62 | CCCC1(c2ccc(C)cc2CN(C(=O)c2cc(C)oc2C)C2CC2)CC1 [Example 1.115] |
| 4.78 | CCC1(c2ccc(Cl)cc2CN(C(=O)c2c(OC(F)F)nn(C)c2F)C2CC2)CC1 [Example 1.089] |
| 4.97 | Cc1ccc(C2(CC(C)C)CC2)c(CN(C(=O)c2c(C)nn(C)c2F)C2CC2)c1 [Example 1.144] |

same assay, conditions: Table 2, compounds of formula (I); HPLC C 18, 40° C., 0.1% aqueous formic acid and acetonitrile

| logP | Molecule |
| --- | --- |
| 4.37 | Cn1cc(C(=S)N(Cc2cccc3c2C2(CCC3)CC2)C2CC2)c(C(F)F)n1 [Ia.03] |

same assay, conditions: Table 4, compounds of formula (IV); HPLC C 18, 40° C., 0.1% aqueous formic acid and acetonitrile

| Molecule | logP |
| --- | --- |
| 3-fluoro-2-(1-methylcyclopropyl)benzaldehyde [IV.14] | 3.13 |
| 1-(2-formyl-4-methylphenyl)cyclopropanecarbonitrile [IV.16] | 2.08 |
